assay: physchem; details: octan-1-ol/water, pH 7.4

| Structure (SMILES) | logD |
| --- | --- |
| CCCNC(=O)c1nnc2c(-c3cncc(C(=O)N4CCC4)c3)cccc2c1N | 2.79 |
| O=C1CC(c2ccc(O)cc2)Oc2cc(O)cc(O)c21 (centres undefined) | 2.6 |
| CCOC(=O)c1c(C)n(Cc2ccco2)c2ccc(O)cc12 | 3.5 |
| Nc1nc2ccc(Cl)cc2c2nc(-c3ccco3)nn12 [CGS-15943] | 3.98 |
| CCN(CC)C(=O)c1ccc(C(c2cccc3cccnc23)N2CCNCC2)cc1 (centres undefined) | 0.7 |
| CCCCC1(CC)C(=O)NC(=O)NC1=O [BUTETHAL] | 1.5 |
| O=C(c1ccc(C(=C2CCN(Cc3cscn3)CC2)c2cccc3cccnc23)cc1)N1CCCC1 | 2.75 |
| O=C1C(=O)c2ccccc2-c2ccccc21 [9,10-PHENANTHRENEQUINONE] | 2.6 |
| Oc1cccc(O[C@H]2C[C@H]3CC[C@@H](C2)N3Cc2ccccc2)c1 | 2.3 |
| CC1(C)CCC(NC(=O)[C@@H](N)CCC(=O)O)CC1 [NEBOGLAMINE] | -0.27 |
| CCOc1ccc(-n2c(CC)nc3ccccc3c2=O)cc1 | 3.27 |

same assay, conditions: octan-1-ol/water, pH 7.4, LogD7.4

| Structure (SMILES) | logD |
| --- | --- |
| Cc1nnc(N)s1 | -0.4 |
| O=C(c1ccc(-c2nc(=O)o[nH]2)cc1)N1CCC(N2CCC(Oc3ccc(Cl)c(Cl)c3)CC2)CC1 | 2.24 |
| CN1CCN2c3ncccc3Cc3ccccc3C2C1 (centres undefined) [MIRTAZAPINE] | 2.82 |
| CC1CCN(C(=O)c2scc3c2OCCO3)CC1 | 2.26 |
| O=C(Nc1ccc(N2CCOCC2)cn1)c1nnc(Nc2ccccc2F)o1 | 2.4 |
| CC[C@H](NC(=O)c1c([S+](C)[O-])c(-c2cccc(F)c2)nc2ccccc12)c1ccccc1 (some centres undefined) | 3.14 |
| Nc1ccc(Cl)c(-c2nc3ncccc3o2)c1 | 1.97 |
| CC(C)Cn1c(=O)n(C)c(=O)c2c(C(=O)N3CC[C@@H](O)C3)c(Cc3ccnc4ccccc34)sc21 | 1.65 |
| C[C@H]1O[C@@H](n2cnc3c(N)nc(OC4CCOC4)nc32)[C@H](O)[C@@H]1O (some centres undefined) | -0.06 |
| Cc1nc(-c2ccc(C)c(NC(=O)c3ccc(OCc4ccccn4)cc3)c2)c[nH]1 | 2.97 |
| COc1cc(O)cc2occ(-c3ccc(O)cc3)c(=O)c12 | 2 |
| Cc1c(-c2ccccc2)oc2c(C(=O)OCCN3CCCCC3)cccc2c1=O [FLAVOXATE] | 3.42 |
| CN1CCOc2cc(COC3CCCCC3)cnc21 | 3.1 |
| NS(=O)(=O)c1ccc(Nc2nccc(Nc3c(Cl)ccc4c3OCO4)n2)cc1 | 2.7 |
| CCC(CC)NC(=O)c1cnn(Cc2ccccc2)c1NS(=O)(=O)c1ccc(C)cc1 | 1.52 |
| O=c1[nH]c2c(O)ccc([C@@H](O)CNCCOCCCNCCc3cccc(Cl)c3)c2s1 | 0.83 |
| N#C/C(=C(\N)Sc1ccc(N)cc1)c1ccccc1C(F)(F)F | 3.4 |
| COC(=O)c1ccc(NC(=O)c2cc(OC)c(OC)c(OC)c2)cc1 | 3.2 |
| Cn1cnc2cc(C#Cc3ccccc3)cnc21 | 3.5 |
| FC(F)(F)c1nnc2ccc(-n3ccnc3)nn12 | 0.91 |
| COc1ccc(-n2sc3ccccc3c2=O)cc1 | 3.02 |
| CCc1ccccc1-c1ccc(-c2nc3ccncc3c(O)c2C#N)cc1 | 3.5 |
| O=C(NC[C@@H](O)CN1CCC(Oc2ccc(Cl)c(Cl)c2)CC1)c1c[nH]nc1C1CC1 | 3.15 |
| OC1(c2ccccc2)CNCCc2ccccc21 (centres undefined) | 1.38 |
| CCCCCCCN(CCc1ccc(OC(C)(C)C(=O)O)cc1)C(=O)Nc1ccc(F)cc1F | 1.93 |

| Structure (SMILES) | logD |
| --- | --- |
| C[C@H]1O[C@@H](n2cnc3c(N)nc(OC4CC5CC5C4)nc32)[C@H](O)[C@@H]1O (some centres undefined) | 1.66 |
| CCc1cc(O)c(Oc2ccc(C(N)=O)cc2F)cc1F | 2.87 |
| CC(C)c1ncc(NC(=O)OCc2ccccc2)c(=O)n1CC(=O)NC(C(=O)C(F)(F)F)C(C)C (centres undefined) | 2.63 |
| Cc1[nH]c2nc(NCc3cccc(Cl)c3)nn2c(=O)c1Cc1ccccc1 | 3.6 |
| Cc1nc(C(=O)N2CCCC3(CCN(Cc4ccc(Cl)cc4)CC3)C2)cs1 | 0.64 |
| C[C@H](NC(=O)/C=C/c1ccccc1)c1cccc(N2CCOCC2)c1 | 3.24 |
| CC1CN(C(=O)c2nnc3c(-c4ncccn4)cccc3c2N)C1 | 1.21 |
| Cc1nsc(C)c1CCC1CCN(S(=O)(=O)CC2(N(O)C=O)CCOCC2)CC1 | 1.5 |
| CN1CCN(c2ccc(Nc3ccnc4ccccc34)cc2)CC1 | 1.3 |
| OCC[C@]1(c2cc3ccccc3o2)CCCNC1 | 0.12 |
| CC(C)NNC(=O)c1ccncc1 [IPRONIAZID] | 0.33 |
| CN1CCN(C(=O)c2cc(-c3ccccc3)sc2NC(N)=O)CC1 | 2.17 |
| Cn1c(N)nc(CCc2ccc3cc[nH]c3c2)cc1=O | 2.1 |
| COc1cc(F)ccc1-c1cncc(CNC(=O)c2ccccc2)c1 | 3.76 |
| Cc1cc2n[nH]c(=O)n2c2cc(-c3ccco3)ccc12 | 2.07 |
| CNCc1cccc(-c2ccc3c(N4CCOCC4)nc(N4C[C@@H](C)O[C@@H](C)C4)nc3n2)c1 | 1.26 |
| COc1ccc(-c2ccc3c(N4CCOC[C@@H]4C)nc(-n4ccnc4)nc3n2)cc1CO | 2.6 |
| O=c1[nH]n(C(c2ccccn2)C2CCCC2)c(=O)c2c(O)c3ccc(Cl)cc3nc12 (centres undefined) | 1.9 |
| OC(CCN1CCCCC1)(c1ccccc1)C1CCCCC1 (centres undefined) [TRIHEXYPHENIDYL] | 2.68 |
| CCCCNc1ccc(C(=O)OCCN(C)C)cc1 [TETRACAINE] | 2.11 |
| CC(C)c1ccc2oc3nc(N)c(C(=O)O)cc3c(=O)c2c1 [AMLEXANOX] | 1.1 |
| Oc1c2ncc3ccccc3c2nn1-c1ccc(Cl)cc1 | 1.52 |
| CC(C)(C)C(=O)Nc1ccc2c(c1)C(=O)C(=O)c1ccccc1-2 | 2.83 |
| Nc1nc2nc(SCc3ccccc3)nc(N)c2s1 | 3.1 |
| CCCc1c(OCCCSc2ccc(CC(=O)O)cc2Cl)ccc(C(=O)CC)c1O | 3.57 |

| Structure (SMILES) | logD |
| --- | --- |
| CCOc1ccc(-c2cnc3n2CCC3)cc1 | 2.65 |
| COc1ccc(C(C)NC(=O)C2(N)CCN(c3ncnc4[nH]ccc34)CC2)cc1OC (centres undefined) | 1.8 |
| CCN(CC)S(=O)(=O)c1ccc(NC(=O)C(C)(O)C(F)(F)F)cc1 (centres undefined) | 2.63 |
| Cc1cn([C@H]2CCCN(Cc3ccc(C(=O)O)c(Oc4cccc(F)c4)c3)C2)c(=O)[nH]c1=O | -1.03 |
| CC1=C(C2=C(C)C(=O)c3c(cc(O)c(O)c3Cc3ccccc3)C2=O)C(=O)c2cc(O)c(O)c(Cc3ccccc3)c2C1=O | 2.73 |
| COc1cccc(C(=O)NCCCOc2cccc3ccc(N)nc23)c1 | 2.46 |
| Cc1ccc(C(=O)N(CCCN)Cc2nc3cc(Cl)ccc3c(=O)n2Cc2ccccc2)cc1 | 1.47 |
| COc1cc(OC)cc(-c2ccc(NC(=O)OCc3ccccc3)c(=O)n2CC(=O)NC(C(=O)C(F)(F)F)C(C)C)c1 (centres undefined) | 2.26 |
| CC(C)Oc1ccc(S(C)(=O)=O)cc1C(=O)N1CCN(c2ccc(C(F)(F)F)cc2)CC1 | 3.33 |
| Cc1cc(NCc2ccccc2)nc2ccccc12 | 3.69 |
| CC[C@H](NC(=O)c1c([S+](C)[O-])c(-c2ccccc2)nc2ccccc12)c1ccccc1 (some centres undefined) | 3.17 |
| COCCC(=O)N[C@H](C)c1ccc(Nc2ncc3cc(-c4ccncc4)ccc3n2)cc1 | 3.08 |
| O=C(O)c1ccc2cccc(O)c2n1 | 3.3 |
| N#Cc1ccc2cccc(O)c2n1 | 1.81 |
| COC(=O)COc1ccc(O)cc1 | 0.92 |
| COc1c(N2CCO[C@@H](CN(C)C)C2)c(F)cc2c(=O)c(C(=O)O)cn(C3CC3)c12 | -0.62 |
| Clc1cccc(-n2nnnc2NCc2ccccc2Oc2ccccn2)c1Cl | 3.62 |
| COc1ccc(NC(=O)CSc2nnc(C)n2-c2ccc(C)cc2)cc1 | 2.94 |
| O=c1c(O)cccc2cc(O)c(O)c(O)c12 [PURPUROGALLIN] | 2.03 |
| CS(=O)(=O)c1cccc(Nc2nccc(Nc3cccc4ocnc34)n2)c1 | 2.9 |
| CNc1cc(C(=O)Nc2ccc(N3CCOCC3)cc2)nc2c(N3CCN(C)CC3)cc(OC)cc12 | 2.93 |
| Cn1cc(C#N)cc1-c1c2c(=O)n(C)c(=O)n(CC3CC3)c2nn1Cc1ccnc2ccc(Cl)cc12 | 3.67 |
| Cn1cnc([N+](=O)[O-])c1Sc1ncnc2nc[nH]c12 [AZATHIOPRINE] | 0.19 |
| Cc1ccc(NC(=O)c2cccc(OCC(C)C)c2)cc1C(=O)Nc1cccnc1 | 2.81 |
| Cn1c(CN2CCC(c3ccccc3)CC2)nc2ccccc21 | 3.6 |

| Structure (SMILES) | logD |
| --- | --- |
| Cc1ccc2c(N)c(C#N)sc2n1 | 2.23 |
| O=c1cc(N2CCOCC2)oc2cc(O)ccc12 | 1 |
| CN[C@@H](C)C(=O)N[C@H](C(=O)N[C@H]1CCCN(CCc2ccc(O)cc2)C1)C(C)(C)C | 0.77 |
| Cn1c(-c2ccc(O)nc2)nc2ccccc21 | 1.2 |
| CCCCCC[C@H]1OC(=O)CNC(=O)[C@@H]([C@H](C)O)NC(=O)[C@H](CO)NC(=O)[C@H]([C@H](C)CC)NC(=O)[C@H](CC(C)C)N(C)C(=O)[C@@H]1C | 3.2 |
| O=C(Nc1ccccc1)c1cc2ccccc2o1 | 3.44 |
| CS(=O)(=O)c1ccccc1C(=O)NC[C@@H](O)CN1CCC(Oc2ccc(Cl)c(Cl)c2)CC1 | 2.34 |
| CCC(c1nc2ccsc2c(=O)n1Cc1cccnc1)N(CCCN)C(=O)c1ccc(C)cc1 (centres undefined) | 0.01 |
| COc1cc(N2CCN(C(C)=O)CC2)ccc1Nc1ncc(Cl)c(-c2cnc3c(OC)cccn23)n1 | 3.5 |
| Cn1c(CN2CCN(c3cccc(Cl)c3)CC2)nc2ccccc21 | 3.75 |
| O=C(NC[C@@H](O)CN1CCC(Oc2ccc(Cl)c(Cl)c2)CC1)c1cn2cc(F)ccc2n1 | 3.33 |
| c1ccc([C@H]2CN3CCSC3=N2)cc1 [LEVAMISOLE] | 0.81 |
| Cc1ccc(-c2c[nH]cn2)cc1NC(=O)c1ccc(OCc2ccccn2)cc1 | 2.81 |
| CCOC(=O)c1cc2ccc(O)cc2oc1=O | 1.2 |
| Cc1ccc(C(=O)c2cc(O)c(O)c([N+](=O)[O-])c2)cc1 [TOLCAPONE] | 0.74 |
| CN(CCOc1ccc(C[C@H](Nc2ccccc2C(=O)c2ccccc2)C(=O)O)cc1)c1nc2ccccc2o1 | 2.47 |
| Fc1ccc(CNc2ncc(Br)c(Nc3cc(C4CC4)[nH]n3)n2)cc1 | 4.28 |
| COc1cc2ncnc(Nc3cc(NC(=O)c4ccnc(N5CCOCC5)c4)ccc3C)c2cc1OCCN1CCCC1 | 2.7 |
| O=C1NC(c2ccc(Br)cc2)Nc2ccccc21 (centres undefined) | 2.68 |
| O=C(Nc1ccccc1)c1cc(Cl)ccc1O | 2.9 |
| Cc1ccc(Oc2cccc(CN3CCCC(n4cc(C)c(=O)[nH]c4=O)C3)c2)cc1 (centres undefined) | 3.38 |
| O=C(NCC12CC3CC(CC(C3)C1)C2)c1cccc(Cl)c1Cl | 4.37 |
| Cc1ccc(NC(=O)c2ccnc(N3CCOCC3)c2)cc1Nc1ccnc(OCC2CCCN(C)C2)n1 (centres undefined) | 1.9 |

— ChEMBL document CHEMBL3301361, “Experimental in vitro DMPK and physicochemical data on a set of publicly disclosed compounds”
